The text below walks through data of patent publication US20250129028A1, “COMPOUNDS AND METHODS FOR YAP/TEAD MODULATION AND INDICATIONS THEREFOR” (Opna Bio SA, priority 2022, published 2025).

SMILES strings stand for the structures.

This test deals with TEAD-dependent transcription. In words: TEAD-dependent transcription cell-based reporter assay (MSTO-211H+12XGTIIC luciferase). The arrangement: species or system human. The settings on record: Homo sapiens; MSTO-211H+12XGTIIC cell line, luciferase signal normalized to cell viability, 24 hours compound incubation; read-out: MSTO-211H GMean IC50 (uM) Cell Assay Reporter Cell Variant: TEAD. The procedure, abridged:
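MSTO-211H mesothelioma cells stably carrying a 12xGTIIC TEAD-response-element luciferase reporter, treated with serial compound dilutions for 24 h at 37 °C. Luminescence normalized to CellTiter-Fluor viability signal; % inhibition versus DMSO and 20 μM K-975 controls, IC50 by nonlinear regression.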
Regarding `CC(=O)N1CCC(c2c(Oc3ccc(C(F)(F)F)cc3)ccc3c2CN(C(=O)CCS(C)(=O)=O)CC3)C1` (stereo not shown) [P-0215, 1-(8-(1-acetylpyrrolidin-3-yl)-7-(4-(trifluorometh-yl)phenoxy)-3,4-dihydro-isoquinolin-2(1H)-yl)-3-(methylsulfonyl)pro-pan-1-one], the IC50 (in general, the point on the concentration scale where inhibition reaches its midpoint) was 10 to 100 µM.
Next, `CC(=O)N1CC(Cc2c(Oc3ccc(C(F)(F)F)cc3)ccc3c2CN(C(=O)CCS(C)(=O)=O)CC3)C1` [P-0216, 1-(8-((1-acetylazetidin-3-yl)methyl)-7-(4-(trifluoromethyl)phen-oxy)-3,4-dihydroisoquin-olin-2(1H)-yl)-3-(methyl-sulfonyl)propan-1-one]: 0.001 to 10 µM.
The value for `CCC1c2cc(Oc3ccc(C(F)(F)F)cc3)ccc2CCN1C(=O)CNC(N)=O` (stereo not shown) [P-0219, 1-(2-(1-ethyl-7-(4-(trifluoromethyl)phen-oxy)-3,4-dihydroisoquin-olin-2(1H)-yl)-2-oxoeth-yl)urea] was 0.001 to 10 µM; that for `CS(=O)(=O)CCC(=O)N1CCc2ccc(Oc3ccc(C(F)(F)F)cc3)c(/C=C/C3CC3)c2C1` [P-0220, (E)-1-(8-(2-cyclopropyl-vinyl)-7-(4-(trifluoro-methyl)phenoxy)-3,4-dihydroisoquinolin-2(1H)-yl)-3-(methylsul-fonyl)propan-1-one] was 0.001 to 10 µM; that for `CC(C)=Cc1c(Oc2ccc(C(F)(F)F)cc2)ccc2c1CN(C(=O)CCS(C)(=O)=O)CC2` [P-0221, 1-(8-(2-methylprop-1-en-1-yl)-7-(4-(trifluorometh-yl)phenoxy)-3,4-dihydro-isoquinolin-2(1H)-yl)-3-(methylsulfonyl)pro-pan-1-one] was 0.001 to 10 µM.
As to `CS(=O)(=O)CCC(=O)N1CCc2ccc(Oc3ccc(C(F)(F)F)cc3)c(/C=C/C3CCNCC3)c2C1` [P-0222, (E)-3-(methylsulfonyl)-1-(8-(2-(piperidin-4-yl)-vinyl)-7-(4-(trifluoro-methyl)phenoxy)-3,4-dihydroisoquinolin-2(1H)-yl)propan-1-one], the IC50 was 0.001 to 10 µM.
The value for `C=CC(=O)N1CCC(C2c3cc(Oc4ccc(C(F)(F)F)cc4)ccc3CCN2C(=O)CCS(C)(=O)=O)CC1` (stereo not shown) [P-0223, 1-(4-(2-(3-(methylsulfon-yl)propanoyl)-7-(4-(trifluoromethyl)phen-oxy)-1,2,3,4-tetrahydro-isoquinolin-1-yl)piper-idin-1-yl)prop-2-en-1-one] was 0.001 to 10 µM; that for `COC(=O)[C@@H]1Cc2ccc(Oc3ccc(C(F)(F)F)cc3)cc2CN1C(=O)CCS(C)(=O)=O` [P-0224, methyl (S)-2-(3-(methyl-sulfonyl)propanoyl)-7-(4-(trifluoromethyl)-phenoxy)-1,2,3,4-tetra-hydroisoquinoline-3-carboxylate] was 0.001 to 10 µM.
Next, `CS(=O)(=O)c1nccc(N2CCc3ccc(Oc4ccc(C(F)(F)F)cc4)cc3C2)n1` [P-0226, 2-(2-(methylsulfonyl)-pyrimidin-4-yl)-7-(4-(trifluoromethyl)phen-oxy)-1,2,3,4-tetrahydro-isoquinoline]: 0.001 to 10 µM; `CS(=O)(=O)c1ccnc(N2CCc3ccc(Oc4ccc(C(F)(F)F)cc4)cc3C2)c1` [P-0227, 2-(4-(methylsulfonyl)pyr-idin-2-yl)-7-(4-(trifluoro-methyl)phenoxy)-1,2,3,4-tetrahydroisoquinoline]: 0.001 to 10 µM.
On to `NC(=O)c1cccc(N2CCc3ccc(Oc4ccc(C(F)(F)F)cc4)cc3C2)n1` [P-0228, 6-(7-(4-(trifluoromethyl)-phenoxy)-3,4-dihydro-isoquinolin-2(1H)-yl)-picolinamide], for which the concentration for half-maximal inhibition (IC50) lay within 0.001 to 10 µM.
The value for `CNC(=O)c1cccc(N2CCc3ccc(Oc4ccc(C(F)(F)F)cc4)cc3C2)n1` [P-0229, N-methyl-6-(7-(4-(trifluoromethyl)phen-oxy)-3,4-dihydroisoquin-olin-2(1H)-yl)picolin-amide] was 0.001 to 10 µM; that for `NS(=O)(=O)c1ccnc(N2CCc3ccc(Oc4ccc(C(F)(F)F)cc4)cc3C2)c1` [P-0230, 2-(7-(4-(trifluorometh-yl)phenoxy)-3,4-dihydro-isoquinolin-2(1H)-yl)-pyridine-4-sulfonamide] was 0.001 to 10 µM; that for `CNC(=O)c1cncc(N2CCc3ccc(Oc4ccc(C(F)(F)F)cc4)cc3C2)n1` [P-0231, N-methyl-6-(7-(4-(trifluoromethyl)phen-oxy)-3,4-dihydroisoquin-olin-2(1H)-yl)pyrazine-2-carboxamide] was 0.001 to 10 µM.
The value for `O=C(NC1CCCC1)N1CCc2c(cccc2Oc2ccc(C(F)(F)F)cc2)C1` [P-0232, N-cyclopentyl-5-(4-(trifluoromethyl)phen-oxy)-3,4-dihydroisoquin-oline-2(1H)-carboxamide] was 0.001 to 10 µM; that for `CC(C)NC(=O)N1CCc2c(cccc2Oc2ccc(C(F)(F)F)cc2)C1` [P-0233, N-isopropyl-5-(4-(trifluoromethyl)phen-oxy)-3,4-dihydroisoquin-oline-2(1H)-carboxamide] was 0.001 to 10 µM; that for `CC(C)C(=O)N1CCc2c(cccc2Oc2ccc(C(F)(F)F)cc2)C1` [P-0234, 2-methyl-1-(5-(4-(trifluoromethyl)phen-oxy)-3,4-dihydroisoquin-olin-2(1H)-yl)propan-1-one] was 0.001 to 10 µM.
As to `CC(C)S(=O)(=O)N1CCc2c(cccc2Oc2ccc(C(F)(F)F)cc2)C1` [P-0235, 2-(isopropylsulfonyl)-5-(4-(trifluoromethyl)phen-oxy)-1,2,3,4-tetrahydro-isoquinoline], the IC50 lay in the range of 0.001 to 10 µM.
`O=S(=O)(C1CCCC1)N1CCc2c(cccc2Oc2ccc(C(F)(F)F)cc2)C1` [P-0236, 2-(cyclopentylsulfonyl)-5-(4-(trifluoromethyl)-phenoxy)-1,2,3,4-tetra-hydroisoquinoline]: the IC50 is 0.001 to 10 µM.
Next, `O=C(Nc1ccccc1)N1CCc2c(cccc2Oc2ccc(C(F)(F)F)cc2)C1` [P-0237, N-phenyl-5-(4-(trifluoro-methyl)phenoxy)-3,4-dihydroisoquinoline-2(1H)-carboxamide]: 0.001 to 10 µM; `CCS(=O)(=O)NC(=O)N1CCc2c(cccc2Oc2ccc(C(F)(F)F)cc2)C1` [P-0238, N-(ethylsulfonyl)-5-(4-(trifluoromethyl)phen-oxy)-3,4-dihydroisoquin-oline-2(1H)-carboxamide]: 0.001 to 10 µM.
Next, `N#CCCC(=O)N1CCc2c(cccc2Oc2ccc(C(F)(F)F)cc2)C1` [P-0239, 4-oxo-4-(5-(4-(trifluoromethyl)phenoxy)-3,4-dihydroisoquinolin-2(1H)-yl)butanenitrile]: 0.001 to 10 µM; `Nc1nc(C(=O)N2CCc3c(cccc3Oc3ccc(C(F)(F)F)cc3)C2)cs1` [P-0240, (2-aminothiazol-4-yl)(5-(4-(trifluoromethyl)phen-oxy)-3,4-dihydroisoquin-olin-2(1H)-yl)methanone]: 0.001 to 10 µM; `O=C(Cc1ccn[nH]1)N1CCc2c(cccc2Oc2ccc(C(F)(F)F)cc2)C1` [P-0241, 2-(1H-pyrazol-5-yl)-1-(5-(4-(trifluoromethyl)-phenoxy)-3,4-dihydroiso-quinolin-2(1H)-yl)ethan-1-one]: 0.001 to 10 µM.
Next, `O=C(Cc1cnc[nH]1)N1CCc2c(cccc2Oc2ccc(C(F)(F)F)cc2)C1` [P-0242, 2-(1H-imidazol-5-yl)-1-(5-(4-(trifluoromethyl)-phenoxy)-3,4-dihydroiso-quinolin-2(1H)-yl)ethan-1-one]: 0.001 to 10 µM; `O=C(CCc1cnc[nH]1)N1CCc2c(cccc2Oc2ccc(C(F)(F)F)cc2)C1` [P-0243, 3-(1H-imidazol-5-yl)-1-(5-(4-(trifluoromethyl)-phenoxy)-3,4-dihydroiso-quinolin-2(1H)-yl)pro-pan-1-one]: 0.001 to 10 µM.
As to `Nc1cncc(C(=O)N2CCc3c(cccc3Oc3ccc(C(F)(F)F)cc3)C2)n1` [P-0244, (6-aminopyrazin-2-yl)(5-(4-(trifluoromethyl)phen-oxy)-3,4-dihydroisoquin-olin-2(1H)-yl)methanone], the IC50 was in the range of 0.001 to 10 µM.
The value for `Nc1ccc(C(=O)N2CCc3c(cccc3Oc3ccc(C(F)(F)F)cc3)C2)cn1` [P-0245, (6-aminopyridin-3-yl)(5-(4-(trifluoromethyl)phen-oxy)-3,4-dihydroisoquin-olin-2(1H)-yl)methanone] was 0.001 to 10 µM.
The value for `O=C(Cc1cocn1)N1CCc2c(cccc2Oc2ccc(C(F)(F)F)cc2)C1` [P-0246, 2-(oxazol-4-yl)-1-(5-(4-(trifluoromethyl)phen-oxy)-3,4-dihydroisoquin-olin-2(1H)-yl)ethan-1-one] was 0.001 to 10 µM; that for `O=C(Cc1cn[nH]c1)N1CCc2c(cccc2Oc2ccc(C(F)(F)F)cc2)C1` [P-0247, 2-(1H-pyrazol-4-yl)-1-(5-(4-(trifluoromethyl)-phenoxy)-3,4-dihydroiso-quinolin-2(1H)-yl)ethan-1-one] was 0.001 to 10 µM.
Next, `O=C(CCc1cn[nH]c1)N1CCc2c(cccc2Oc2ccc(C(F)(F)F)cc2)C1` [P-0248, 3-(1H-pyrazol-4-yl)-1-(5-(4-(trifluoromethyl)-phenoxy)-3,4-dihydro-isoquinolin-2(1H)-yl)pro-pan-1-one]: 0.001 to 10 µM; `O=C(CCc1ncc[nH]1)N1CCc2c(cccc2Oc2ccc(C(F)(F)F)cc2)C1` [P-0249, 3-(1H-imidazol-2-yl)-1-(5-(4-(trifluoromethyl)-phenoxy)-3,4-dihydro-isoquinolin-2(1H)-yl)pro-pan-1-one]: 0.001 to 10 µM.
For the compound `O=C(CCn1cnnc1)N1CCc2c(cccc2Oc2ccc(C(F)(F)F)cc2)C1` [P-0250, 3-(4H-1,2,4-triazol-4-yl)-1-(5-(4-(trifluoromethyl)-phenoxy)-3,4-dihydro-isoquinolin-2(1H)-yl)-propan-1-one], the IC50 was 0.001 to 10 µM.
Next, `O=C(Cc1nnc[nH]1)N1CCc2c(cccc2Oc2ccc(C(F)(F)F)cc2)C1` [P-0251, 2-(4H-1,2,4-triazol-3-yl)-1-(5-(4-(trifluoromethyl)-phenoxy)-3,4-dihydroiso-quinolin-2(1H)-yl)ethan-1-one]: 0.001 to 10 µM.
